According to the supplement of paper PMC8967900:

Experiments:
Test in all cases: selective drug sensitivity score (sDSS, relative to normal bone marrow) (sDSS (score)); higher = more potent and effective on the cell line relative to normal bone marrow cells
Settings in all cases: 72 h
HPB-ALL = test system: HPB-ALL
COG-LL-402h = test system: COG-LL-402h
HAL-01 = test system: HAL-01
TMD5 = test system: TMD5
KASUMI-2 = test system: KASUMI-2
RPMI-8402 = test system: RPMI-8402
REH = test system: REH
DND-41 = test system: DND-41
KASUMI-10 = test system: KASUMI-10
P12-ICHIKAWA = test system: P12-ICHIKAWA
RCH-ACV = test system: RCH-ACV
MOLT-4 = test system: MOLT-4
CCRF-HSB2 = test system: CCRF-HSB2
SUP-B15 = test system: SUP-B15
KASUMI-9 = test system: KASUMI-9
TANOUE = test system: TANOUE
COG-LL-317 = test system: COG-LL-317
KOPN-8 = test system: KOPN-8
MOLT-14 = test system: MOLT-14
KARPAS-45 = test system: KARPAS-45
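Note: ALL cell lines in 384-well plates, five doses spanning 10,000-fold, each plate scaled between vehicle and 100 µmol/L benzalkonium chloride controls, sDSS an adapted area-under-curve metric.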

Structure (SMILES) | selective drug sensitivity score (HPB-ALL) | selective drug sensitivity score (COG-LL-402h) | selective drug sensitivity score (HAL-01) | selective drug sensitivity score (TMD5) | selective drug sensitivity score (KASUMI-2) | selective drug sensitivity score (RPMI-8402) | selective drug sensitivity score (REH) | selective drug sensitivity score (DND-41) | selective drug sensitivity score (KASUMI-10) | selective drug sensitivity score (P12-ICHIKAWA) | selective drug sensitivity score (RCH-ACV) | selective drug sensitivity score (MOLT-4) | selective drug sensitivity score (CCRF-HSB2) | selective drug sensitivity score (SUP-B15) | selective drug sensitivity score (KASUMI-9) | selective drug sensitivity score (TANOUE) | selective drug sensitivity score (COG-LL-317) | selective drug sensitivity score (KOPN-8) | selective drug sensitivity score (MOLT-14) | selective drug sensitivity score (KARPAS-45)
Cc1ccc(C(=O)N(CCCN)[C@@H](c2oc3cc(Cl)ccc3c(=O)c2Cc2ccccc2)C(C)C)cc1 (top concentration 100 nM) | 13.8 | 3.06 | 3.66 | 11.9 | 3.56 | 2.86 | 4.26 | -0.64 | 1.96 | 1.76 | 1.96 | 1.16 | 9.56 | 4.26 | 4.16 | -3.64 | 1.16 | 3.46 | 3.76 | 7.16
CCc1nc(C(N)=O)c(Nc2ccc(N3CCC(N4CCN(C)CC4)CC3)c(OC)c2)nc1NC1CCOCC1 [Gilteritinib] (top concentration 1000 nM) | -1.62 | 1.58 | -1.82 | -2.52 | -2.52 | -1.32 | -2.52 | -2.52 | 10.4 | -2.52 | 2.58 | -2.52 | 0.08 | -2.42 | 2.88 | -2.52 | -2.52 | 3.08 | -2.52 | -2.12
CC[C@H](Nc1ncnc2[nH]cnc12)c1nc2cccc(F)c2c(=O)n1-c1ccccc1 [Idelalisib] (top concentration 10000 nM) | -2.16 | 5.34 | 16.1 | 8.84 | 8.04 | -0.76 | 2.74 | -1.16 | -0.26 | -1.26 | 23.8 | -1.36 | 1.24 | -2.16 | 7.54 | -2.16 | 0.04 | 5.64 | -2.16 | 1.54
Cc1cc2c(C(C)C)c(O)c(O)c(C=O)c2c(O)c1-c1c(C)cc2c(C(C)C)c(O)c(O)c(C=O)c2c1O [AT-101] (top concentration 100000 nM) | 10.9 | 4.18 | 0.58 | 0.18 | -0.32 | 1.88 | 5.28 | 4.68 | 2.48 | 2.78 | 0.98 | 1.98 | 2.48 | 5.78 | 6.48 | 0.98 | 8.08 | 14.6 | 4.98 | 5.98
Sc1ncnc2nc[nH]c12 [Mercaptopurine] (top concentration 10000 nM) | 14.9 | 6.6 | 12.4 | 0 | 12.4 | 9.2 | 17 | 11.1 | 6.9 | 9.6 | 14.2 | 8.7 | 12.6 | 12.7 | 15.4 | 7.2 | 23.7 | 14.9 | 10.9 | 17.1
COc1ccc(Cn2ccc3ccc(C(=O)NO)cc32)cc1 (top concentration 10000 nM) | 0.84 | 5.44 | 5.84 | -0.96 | -1.06 | 1.54 | 2.54 | 2.94 | 3.14 | 2.34 | 1.54 | 1.44 | 6.64 | 3.64 | 2.24 | 1.34 | 13.7 | 8.74 | 5.64 | 2.94
CNC(=O)c1nn(C)c2c1C(C)(C)Cc1cnc(Nc3ccc(N4CCN(C)CC4)cc3)nc1-2 [Milciclib] (top concentration 10000 nM) | 4.44 | 12 | 5.94 | -1.16 | -2.56 | 5.54 | 4.44 | 9.04 | 12.6 | 2.34 | 14.3 | 3.84 | 13.9 | 8.14 | 9.94 | -3.76 | 8.94 | 5.84 | 7.04 | 5.04
Cc1ccc(C(=O)Nc2ccc(Oc3cc4cnn(C)c4cc3-c3cn[nH]c3)c(F)c2)c(=O)n1-c1ccc(F)cc1 [Merestinib] (top concentration 1000 nM) | -0.62 | -0.62 | 5.68 | -0.62 | -0.62 | -0.62 | -0.62 | -0.62 | 14.8 | -0.62 | 1.08 | -0.62 | -0.22 | -0.62 | 0.18 | -0.62 | -0.62 | -0.62 | -0.62 | -0.62
O=C(Nc1ccncc1)C(=O)c1cn(Cc2ccc(Cl)cc2)c2ccccc12 [Indibulin] (top concentration 10000 nM) | 14.2 | 3.64 | 5.34 | 3.44 | 7.14 | 5.84 | 4.14 | 5.54 | 11.3 | 6.54 | 14.6 | 9.64 | 11.2 | 11.8 | 12 | -2.76 | 6.24 | 17.9 | 14.1 | 6.84
